# Reference: the CheMixHub viscosity set
# ± gives the uncertainty stated by the source.
# Assay: xn = mol fraction of the nth substance listed
compound,measurement,setting,value
CC12CC3CC(C)(C1)CC(C)(C3)C2 + c1ccc2c(c1)CCCC2,viscosity,"293.15 K, 100 kPa, x1 = 0.1006",2.14 ± 0.09 mPa·s
same,viscosity,"293.15 K, 100 kPa, x1 = 0.2003",2.1 ± 0.09 mPa·s
same,viscosity,"293.15 K, 100 kPa, x1 = 0.2993",2.1 ± 0.09 mPa·s
same,viscosity,"293.15 K, 100 kPa, x1 = 0.4002",2.12 ± 0.09 mPa·s
same,viscosity,"293.15 K, 100 kPa, x1 = 0.4993",2.16 ± 0.09 mPa·s
same,viscosity,"293.15 K, 100 kPa, x1 = 0.6013",2.22 ± 0.09 mPa·s
same,viscosity,"293.15 K, 100 kPa, x1 = 0.7012",2.29 ± 0.09 mPa·s
same,viscosity,"293.15 K, 100 kPa, x1 = 0.8008",2.38 ± 0.1 mPa·s
same,viscosity,"293.15 K, 100 kPa, x1 = 0.9005",2.5 ± 0.1 mPa·s
same,viscosity,"298.15 K, 100 kPa, x1 = 0.1006",1.93 ± 0.08 mPa·s
same,viscosity,"298.15 K, 100 kPa, x1 = 0.2003",1.9 ± 0.08 mPa·s
same,viscosity,"298.15 K, 100 kPa, x1 = 0.2993",1.9 ± 0.08 mPa·s
same,viscosity,"298.15 K, 100 kPa, x1 = 0.4002",1.92 ± 0.08 mPa·s
same,viscosity,"298.15 K, 100 kPa, x1 = 0.4993",1.95 ± 0.08 mPa·s
same,viscosity,"298.15 K, 100 kPa, x1 = 0.6013",2 ± 0.08 mPa·s
same,viscosity,"298.15 K, 100 kPa, x1 = 0.7012",2.07 ± 0.08 mPa·s
same,viscosity,"298.15 K, 100 kPa, x1 = 0.8008",2.15 ± 0.09 mPa·s
same,viscosity,"298.15 K, 100 kPa, x1 = 0.9005",2.25 ± 0.09 mPa·s
same,viscosity,"303.15 K, 100 kPa, x1 = 0.1006",1.76 ± 0.07 mPa·s
same,viscosity,"303.15 K, 100 kPa, x1 = 0.2003",1.73 ± 0.07 mPa·s
same,viscosity,"303.15 K, 100 kPa, x1 = 0.2993",1.73 ± 0.07 mPa·s
same,viscosity,"303.15 K, 100 kPa, x1 = 0.4002",1.75 ± 0.07 mPa·s
same,viscosity,"303.15 K, 100 kPa, x1 = 0.4993",1.78 ± 0.07 mPa·s
same,viscosity,"303.15 K, 100 kPa, x1 = 0.6013",1.82 ± 0.07 mPa·s
same,viscosity,"303.15 K, 100 kPa, x1 = 0.7012",1.88 ± 0.08 mPa·s
same,viscosity,"303.15 K, 100 kPa, x1 = 0.8008",1.95 ± 0.08 mPa·s
same,viscosity,"303.15 K, 100 kPa, x1 = 0.9005",2.04 ± 0.08 mPa·s
same,viscosity,"308.15 K, 100 kPa, x1 = 0.1006",1.61 ± 0.07 mPa·s
same,viscosity,"308.15 K, 100 kPa, x1 = 0.2003",1.59 ± 0.07 mPa·s
same,viscosity,"308.15 K, 100 kPa, x1 = 0.2993",1.59 ± 0.07 mPa·s
same,viscosity,"308.15 K, 100 kPa, x1 = 0.4002",1.6 ± 0.07 mPa·s
same,viscosity,"308.15 K, 100 kPa, x1 = 0.4993",1.62 ± 0.07 mPa·s
same,viscosity,"308.15 K, 100 kPa, x1 = 0.6013",1.67 ± 0.07 mPa·s
same,viscosity,"308.15 K, 100 kPa, x1 = 0.7012",1.72 ± 0.07 mPa·s
same,viscosity,"308.15 K, 100 kPa, x1 = 0.8008",1.78 ± 0.07 mPa·s
same,viscosity,"308.15 K, 100 kPa, x1 = 0.9005",1.85 ± 0.08 mPa·s
same,viscosity,"313.15 K, 100 kPa, x1 = 0.1006",1.48 ± 0.06 mPa·s
same,viscosity,"313.15 K, 100 kPa, x1 = 0.2003",1.46 ± 0.06 mPa·s
same,viscosity,"313.15 K, 100 kPa, x1 = 0.2993",1.46 ± 0.06 mPa·s
same,viscosity,"313.15 K, 100 kPa, x1 = 0.4002",1.47 ± 0.06 mPa·s
same,viscosity,"313.15 K, 100 kPa, x1 = 0.4993",1.49 ± 0.06 mPa·s
same,viscosity,"313.15 K, 100 kPa, x1 = 0.6013",1.53 ± 0.06 mPa·s
same,viscosity,"313.15 K, 100 kPa, x1 = 0.7012",1.57 ± 0.06 mPa·s
same,viscosity,"313.15 K, 100 kPa, x1 = 0.8008",1.63 ± 0.07 mPa·s
same,viscosity,"313.15 K, 100 kPa, x1 = 0.9005",1.7 ± 0.07 mPa·s
same,viscosity,"318.15 K, 100 kPa, x1 = 0.1006",1.37 ± 0.06 mPa·s
same,viscosity,"318.15 K, 100 kPa, x1 = 0.2003",1.35 ± 0.06 mPa·s
same,viscosity,"318.15 K, 100 kPa, x1 = 0.2993",1.35 ± 0.06 mPa·s
same,viscosity,"318.15 K, 100 kPa, x1 = 0.4002",1.36 ± 0.06 mPa·s
same,viscosity,"318.15 K, 100 kPa, x1 = 0.4993",1.38 ± 0.06 mPa·s
same,viscosity,"318.15 K, 100 kPa, x1 = 0.6013",1.41 ± 0.06 mPa·s
same,viscosity,"318.15 K, 100 kPa, x1 = 0.7012",1.45 ± 0.06 mPa·s
same,viscosity,"318.15 K, 100 kPa, x1 = 0.8008",1.5 ± 0.06 mPa·s
same,viscosity,"318.15 K, 100 kPa, x1 = 0.9005",1.56 ± 0.06 mPa·s
same,viscosity,"323.15 K, 100 kPa, x1 = 0.1006",1.26 ± 0.05 mPa·s
same,viscosity,"323.15 K, 100 kPa, x1 = 0.2003",1.25 ± 0.05 mPa·s
same,viscosity,"323.15 K, 100 kPa, x1 = 0.2993",1.25 ± 0.05 mPa·s
same,viscosity,"323.15 K, 100 kPa, x1 = 0.4002",1.26 ± 0.05 mPa·s
same,viscosity,"323.15 K, 100 kPa, x1 = 0.4993",1.28 ± 0.05 mPa·s
same,viscosity,"323.15 K, 100 kPa, x1 = 0.6013",1.31 ± 0.05 mPa·s
same,viscosity,"323.15 K, 100 kPa, x1 = 0.7012",1.34 ± 0.05 mPa·s
same,viscosity,"323.15 K, 100 kPa, x1 = 0.8008",1.39 ± 0.06 mPa·s
same,viscosity,"323.15 K, 100 kPa, x1 = 0.9005",1.44 ± 0.06 mPa·s
CCCCCCCCCCCCCC + c1ccccc1,viscosity,"298 K, 101 kPa, x2 = 0.5",1.239 ± 0.033 mPa·s
same,viscosity,"298.15 K, 101 kPa, x1 = 0.1005",0.696 ± 0.047 mPa·s
same,viscosity,"298.15 K, 101 kPa, x1 = 0.2025",0.803 ± 0.053 mPa·s
same,viscosity,"298.15 K, 101 kPa, x1 = 0.3001",0.909 ± 0.059 mPa·s
same,viscosity,"298.15 K, 101 kPa, x1 = 0.3948",1.038 ± 0.066 mPa·s
same,viscosity,"298.15 K, 101 kPa, x1 = 0.469",1.168 ± 0.073 mPa·s
same,viscosity,"298.15 K, 101 kPa, x1 = 0.5776",1.318 ± 0.082 mPa·s
same,viscosity,"298.15 K, 101 kPa, x1 = 0.6954",1.468 ± 0.09 mPa·s
same,viscosity,"298.15 K, 101 kPa, x1 = 0.8004",1.664 ± 0.1 mPa·s
same,viscosity,"298.15 K, 101 kPa, x1 = 0.9094",1.86 ± 0.11 mPa·s
same,viscosity,"298.15 K, 101.33 kPa, x1 = 0.04444",0.6498 ± 0.0058 mPa·s
same,viscosity,"298.15 K, 101.33 kPa, x1 = 0.09068",0.6807 ± 0.006 mPa·s
same,viscosity,"298.15 K, 101.33 kPa, x1 = 0.2125",0.8158 ± 0.007 mPa·s
same,viscosity,"298.15 K, 101.33 kPa, x1 = 0.4169",1.079 ± 0.0089 mPa·s
same,viscosity,"298.15 K, 101.33 kPa, x1 = 0.5121",1.221 ± 0.01 mPa·s
same,viscosity,"298.15 K, 101.33 kPa, x1 = 0.6271",1.423 ± 0.011 mPa·s
same,viscosity,"298.15 K, 101.33 kPa, x1 = 0.7139",1.579 ± 0.013 mPa·s
same,viscosity,"298.15 K, 101.33 kPa, x1 = 0.8006",1.716 ± 0.014 mPa·s
same,viscosity,"298.15 K, 101.33 kPa, x1 = 0.8822",1.842 ± 0.015 mPa·s
same,viscosity,"303.15 K, 101 kPa, x1 = 0.1005",0.653 ± 0.045 mPa·s
same,viscosity,"303.15 K, 101 kPa, x1 = 0.2025",0.748 ± 0.05 mPa·s
same,viscosity,"303.15 K, 101 kPa, x1 = 0.3001",0.842 ± 0.055 mPa·s
same,viscosity,"303.15 K, 101 kPa, x1 = 0.3948",0.961 ± 0.062 mPa·s
same,viscosity,"303.15 K, 101 kPa, x1 = 0.469",1.081 ± 0.068 mPa·s
same,viscosity,"303.15 K, 101 kPa, x1 = 0.5776",1.211 ± 0.076 mPa·s
same,viscosity,"303.15 K, 101 kPa, x1 = 0.6954",1.341 ± 0.083 mPa·s
same,viscosity,"303.15 K, 101 kPa, x1 = 0.8004",1.513 ± 0.092 mPa·s
same,viscosity,"303.15 K, 101 kPa, x1 = 0.9094",1.684 ± 0.1 mPa·s
same,viscosity,"308.15 K, 101 kPa, x1 = 0.1005",0.611 ± 0.042 mPa·s
same,viscosity,"308.15 K, 101 kPa, x1 = 0.2025",0.699 ± 0.047 mPa·s
same,viscosity,"308.15 K, 101 kPa, x1 = 0.3001",0.786 ± 0.052 mPa·s
same,viscosity,"308.15 K, 101 kPa, x1 = 0.3948",0.894 ± 0.058 mPa·s
same,viscosity,"308.15 K, 101 kPa, x1 = 0.469",1.002 ± 0.064 mPa·s
same,viscosity,"308.15 K, 101 kPa, x1 = 0.5776",1.115 ± 0.07 mPa·s
same,viscosity,"308.15 K, 101 kPa, x1 = 0.6954",1.228 ± 0.077 mPa·s
same,viscosity,"308.15 K, 101 kPa, x1 = 0.8004",1.384 ± 0.085 mPa·s
same,viscosity,"308.15 K, 101 kPa, x1 = 0.9094",1.54 ± 0.094 mPa·s
same,viscosity,"318 K, 101 kPa, x2 = 0.5",0.9217 ± 0.024 mPa·s
CCCCCO + c1ccccc1,viscosity,"293.15 K, 101.33 kPa, x1 = 0.0659",0.671 ± 0.009 mPa·s
same,viscosity,"293.15 K, 101.33 kPa, x1 = 0.1351",0.715 ± 0.009 mPa·s
same,viscosity,"293.15 K, 101.33 kPa, x1 = 0.218",0.791 ± 0.01 mPa·s
same,viscosity,"293.15 K, 101.33 kPa, x1 = 0.2928",0.876 ± 0.011 mPa·s
same,viscosity,"293.15 K, 101.33 kPa, x1 = 0.4304",1.127 ± 0.014 mPa·s
same,viscosity,"293.15 K, 101.33 kPa, x1 = 0.5061",1.307 ± 0.016 mPa·s
same,viscosity,"293.15 K, 101.33 kPa, x1 = 0.58",1.532 ± 0.018 mPa·s
same,viscosity,"293.15 K, 101.33 kPa, x1 = 0.6971",2.016 ± 0.024 mPa·s
same,viscosity,"293.15 K, 101.33 kPa, x1 = 0.729",2.159 ± 0.025 mPa·s
same,viscosity,"293.15 K, 101.33 kPa, x1 = 0.8032",2.568 ± 0.029 mPa·s
same,viscosity,"293.15 K, 101.33 kPa, x1 = 0.8704",3.014 ± 0.034 mPa·s
same,viscosity,"293.15 K, 101.33 kPa, x1 = 0.9454",3.594 ± 0.04 mPa·s
same,viscosity,"298.15 K, 101 kPa, x1 = 0.04",0.616 ± 0.016 mPa·s
same,viscosity,"298.15 K, 101 kPa, x1 = 0.09",0.641 ± 0.017 mPa·s
same,viscosity,"298.15 K, 101 kPa, x1 = 0.14",0.669 ± 0.018 mPa·s
same,viscosity,"298.15 K, 101 kPa, x1 = 0.18",0.709 ± 0.019 mPa·s
same,viscosity,"298.15 K, 101 kPa, x1 = 0.37",0.936 ± 0.025 mPa·s
same,viscosity,"298.15 K, 101 kPa, x1 = 0.47",1.132 ± 0.03 mPa·s
same,viscosity,"298.15 K, 101 kPa, x1 = 0.57",1.36 ± 0.036 mPa·s
same,viscosity,"298.15 K, 101 kPa, x1 = 0.78",1.963 ± 0.051 mPa·s
